SMILES strings stand for the structures.

Type in all cases: cell-based
One data set has as its system HBeAg. The data set can be described thus: PHH HBV natural infection assay, HBeAg (alphalisa). Conditions: Hepatitis B virus, Hepatocyte, read-out: HBeAg IC50. Here is the method:
(§1) Detailed procedures regarding primary human hepatocyte (PHH) HBV natural infection assay are described as below. One tube of frozen PHH (10 million cells) is thawed in 37° C. water bath and then transferred to 20 mL of PHH thawing medium (Sigma, InVitroGRO HT Medium, Cat. S03319) with gently mixing. The cells were then centrifuged at […] for 5 min, the supernatant was discarded and the tube was refilled with 25 mL of PHH plating medium (Sigma, InVitroGRO CP Medium, Cat. S03317). The tube was shaken very gently to re-suspend all cells, and then 50 μL of cells were transferred to each well 384-well collagen I coated plate with appropriate liquid handling equipment, e.g. Integra VIAFLO384 or Agilent Bravo. The cells were then cultured for 24 hours in a cell incubator. For HBV infection, after PHH attachment on the culture plate, the plating medium was removed and replenished with PHH culture medium containing HBV virus. The PHH culture medium was prepared with Dulbecco's Modified Eagle Medium (DMEM)/F12 (1:1 in volume ratio) containing 10% fetal bovine serum (Gibco, Cat. 10099141), 5 ng/mL human epidermal growth factor (Gibco, Cat. PHG0311L), 20 ng/mL dexamethasone (Sigma, Cat. D4902-100 mg), 250 ng/mL human recombinant insulin (Gibco, Cat. 41400045) and 100 U/mL penicillin. HBV virus at 200 genome equivalent (GE) per cell with 4% PEG8000 (Sigma, Cat. P1458) containing culture medium were added to the PHH culture medium for infection. The cells were then cultured for 24 hours in cell incubator. Then the cell culture supernatant was removed. The HBV-infected PHH were cultured with sandwich culture method with MEI culture medium containing 1% DMSO and 0.25 mg/mL matrix gel for 72 hours. The supernatant was then refreshed with PHH culture medium containing different concentrations of testing compounds for two times with 72-hour interval. At the end of treatment, the supernatant was collected for viral markers measurements, including HBsAg, HBeAg, HBV DNA and cytotoxicity. HBsAg and HBeAg were detected using alphalisa method using their specific antibodies. For HBV DNA detection, HBV DNA Quantitative Fluorescence Diagnostic Kit (Sansure Biotech Inc.) was used following the manufacture's protocol. Cytotoxicity was determined using Cell Counting Kit-8 (CCK8, Dojindo Molecular Technologies, Inc.).
(§2) The compounds of the present invention were tested for their capacity to inhibit HBsAg and HBeAg as described herein.

The nature of data set [1]: Cytotoxicity in PHH natural infection assay (Cell Counting Kit-8). The note with it: HBV-infected primary human hepatocytes, CCK8. How it is done:
as §1

In the next data set the test system is HBsAg. As to the kind of experiment: PHH HBV natural infection assay, HBsAg (alphalisa). The note with it: Hepatitis B virus, Hepatocyte, read-out: HBsAg IC50. Here is the method:
as §1, §2
A general note: In Alpha technology, singlet oxygen from a donor bead excites a nearby acceptor bead.

The term IC50 denotes the concentration at which inhibition is half-maximal. As a reminder, the CC50 is the concentration giving 50% cytotoxicity. Lower therefore signals greater toxicity to the cells. Take `O=C(NC1CCC2(CC1)CCN(c1nc3cc(Cl)ccc3o1)CC2)[C@H]1CCS(=O)(=O)C1` [Example 92, (3R)—N-[3-(5-chloro-1,3-benzoxazol-2-yl)-3-azaspiro[5.5]undecan-9-yl]-1,1-dioxo-thiolane-3-carboxamide]: the IC50 came to 0.75 µM with HBeAg and 0.857 µM in the data set with HBsAg. Also, it took 83.9 µM to reach half-maximal cytotoxicity in data set [1] (CC50 at 144 h).

As to `O=C(NC1CCC2(CC1)CCN(c1nc3cc(Cl)ccc3o1)CC2)c1ccc(S(=O)(=O)CC2CC2)o1` [Example 121, N-[3-(5-chloro-1,3-benzoxazol-2-yl)-3-azaspiro[5.5]undecan-9-yl]-5-(cyclopropylmethylsulfonyl)furan-2-carboxamide], the IC50 with HBeAg was found to be 1.16 µM; in the data set with HBsAg it was 1.54 µM. In data set [1], the CC50 at 144 h is over 100 µM.

For the molecule `CS(=O)(=O)c1cc(C(=O)NC2CC3(C2)CN(c2nc4cc(Cl)ccc4o2)C3)ccn1` [Example 52, N-[2-(5-chloro-1,3-benzoxazol-2-yl)-2-azaspiro[3.3]heptan-6-yl]-2-methylsulfonyl-pyridine-4-carboxamide], the concentration for half-maximal inhibition (IC50) came out at 1.26 µM in the data set on HBeAg and 1.5 µM with HBsAg. The CC50 at 144 h in data set [1] is over 100 µM.

For the molecule `O=C(NC1CC2(C1)CN(c1nc3cc(Cl)ccc3o1)C2)C1CC1(F)F` (stereo not drawn) [Example 30, N-[2-(5-chloro-1,3-benzoxazol-2-yl)-2-azaspiro[3.3]heptan-6-yl]-2,2-difluoro-cyclopropanecarboxamide], the values for the IC50 in the data set on HBeAg and in the data set with HBsAg were 2.7 µM and 3.5 µM, respectively. In data set [1], the CC50 at 144 h is over 100 µM.

For the molecule `CCS(=N)(=O)c1ccc(C(=O)NC2CCC3(CC2)CCN(c2nc4cc(Cl)ccc4o2)CC3)o1` (stereo not drawn) [Example 114, N-[3-(5-chloro-1,3-benzoxazol-2-yl)-3-azaspiro[5.5]undecan-9-yl]-5-(ethylsulfonimidoyl)furan-2-carboxamide], the IC50 in the data set on HBeAg is 3.1 µM; with HBsAg, 3.54 µM. Further, in data set [1], half-maximal cytotoxicity (CC50 at 144 h) was put at 93.3 µM.

Turning to `O=C(NC1CC2(CCN(c3nc4ccc(Cl)cc4o3)C2)C1)C1CCS(=O)(=O)C1` (stereo not drawn) [Example 73, N-[6-(6-chloro-1,3-benzoxazol-2-yl)-6-azaspiro[3.4]octan-2-yl]-1,1-dioxo-thiolane-3-carboxamide], the IC50 with HBeAg turned out to be 3.05 µM; with HBsAg, 6.32 µM. This molecule came in with a CC50 at 144 h in data set [1] of over 100 µM.

On to `O=C(NC1CCN(c2nc3cc(Cl)ccc3o2)CC1)c1ccc(C(F)(F)F)o1` [Example 12, N-[1-(5-chloro-1,3-benzoxazol-2-yl)-4-piperidyl]-5-(trifluoromethyl)furan-2-carboxamide], for which the IC50 in the data set on HBeAg turned out to be 5.44 µM; in the data set with HBsAg, 4.59 µM. This molecule also yielded a CC50 at 144 h in data set [1] of over 100 µM.

For `COc1cc(C(=O)NC2CC3(C2)CN(c2nc4cc(Cl)ccc4o2)C3)ccn1` [Example 43, N-[2-(5-chloro-1,3-benzoxazol-2-yl)-2-azaspiro[3.3]heptan-6-yl]-2-methoxy-pyridine-4-carboxamide], the 50% inhibitory concentration (IC50) with HBeAg was found to be 1.01 µM; with HBsAg it was 1.76 µM. In data set [1], this molecule registered a half-maximal cytotoxic concentration (CC50) at 144 h of 84.8 µM.

With `O=C(NC1CCC2(CC1)CCN(c1nc3ccc(Cl)cc3o1)CC2)C1CCS(=O)(=O)CC1` [Example 97, N-[3-(6-chloro-1,3-benzoxazol-2-yl)-3-azaspiro[5.5]undecan-9-yl]-1,1-dioxo-thiane-4-carboxamide], the results for the half-inhibitory concentration (IC50) in the data set on HBeAg and with HBsAg were 2.48 µM and 3.52 µM, respectively. For the same molecule, in data set [1], the CC50 at 144 h is over 100 µM.

As to `CS(=N)(=O)c1ccc(C(=O)NC2CC3(C2)CN(c2nc4cc(Cl)ccc4o2)C3)o1` (stereo not drawn) [Example 40, N-[2-(5-chloro-1,3-benzoxazol-2-yl)-2-azaspiro[3.3]heptan-6-yl]-5-(methylsulfonimidoyl)furan-2-carboxamide], the IC50 in the data set with HBeAg was 4.78 µM; in the data set on HBsAg, 6.13 µM. In data set [1], this molecule had a cytotoxic concentration (CC50) at 144 h of over 100 µM.

On to `CS(=O)(=O)N1CC(CC(=O)NCC2CCN(c3nc4cc(Cl)ccc4o3)CC2)C1` [Example 17, N-[[1-(5-chloro-1,3-benzoxazol-2-yl)-4-piperidyl]methyl]-2-(1-methylsulfonylazetidin-3-yl)acetamide], for which the figures for the IC50 with HBeAg and with HBsAg were over 10 µM and 8.23 µM, respectively. For the same molecule, the cytotoxic concentration (CC50) at 144 h in data set [1] was over 10 µM.

Values taken from patent publication US20230416238A1, “N-[(1,3-BENZOXAZOL-2-YL)-HETEROCYCLE]AMIDE DERIVATIVES FOR THE TREATMENT AND PROPHYLAXIS OF HEPATITIS B VIRUS INFECTION” (Hoffmann-La Roche Inc., priority 2020, published 2023).
